According to US11197893B2, “Pure platelet-rich plasma (P-PRP) composition for treatment of subclinical mastitis and methods of producing and using the same” (Universidad de Caldas, priority 2016, dated 2021):

Experiments:
[1] = Somatic cell count (LnSCC) in milk of treated cows; format: in vivo; conditions: days 21, 22, 47, 48 vs day 0; FIG. 7
From the text: Two individual composite milk samples were aseptically collected from each cow during the first visit to the herd in order to select the cows to be treated for subclinical mastitis. These milk samples were refrigerated and submitted to Universidad de Caldas for analysis, with one of the samples being used for analysis of subclinical mastitis using an automated cell counter (FOSSOMATIC, from Foss, Hillerod, Denmark). The subclinical mastitis results were expressed as the natural log (LnSCC), in thousands/mL to normalize the data distribution. […]
Cure was defined at the cow level. […] Cure risk was statistically assessed for initial treatment (samples taken at days 21 and 22) and treatment of refractory cases samples (samples taken at days 47 and 48), independently. […]
The statistical analyses of LnSCC and the milk concentration of IL-1, IL-2, IL-4, IL-6, IL-8, IFN-γ, and TNF-αresults were done using linear regression. […] The linear regression model used was: y=intercept+treatment+herd+parity+LnSCC+error [4] where y corresponds to LnSCC after treatment on days 21 and 47 for cows treated one or two times, respectively, and the milk concentrations of IL-1, IL-2, IL-4, IL-6, IL-8, IFN-γ, and TNF-α, which were measured only at days 0 and 21. […]

Streptococcus uberis = assay: Non-inferiority trial: bacteriological cure, Strep. uberis infections; format: in vivo, cows; conditions: Strep. uberis cases; margin −0.175; 95% CI; FIG. 6
Description: (§1) A non-inferiority randomized clinical trial was conducted, following methodology described in Schukken et al., “Noninferiority Trial Comparing a First-Generation Cephalosporin With a Third-Generation Cephalosporin in the Treatment of Nonsevere Clinical Mastitis in Dairy Cows,” J. Dairy Sci. 96(10): 6763-74 (2013). […] Ha: [Rcure(cefquinome)−Rcure(P-PRP)]>−Δ [2] where “Rcure”is the cure risk and “Δ” is the non-inferiority margin. Results were interpreted according to the principles for a non-inferiority trial (Piaggio et al., “Reporting of Noninferiority and Equivalence Randomized Trials: Extension of the CONSORT 2010 Statement,” JAMA 308(24): 2594-604 (2012); Schukken et al. (2013)).
(§2) The milk samples were streaked onto agar plates containing 5% sheep blood and 0.1% esculin. The agar plates were incubated at 37.5° C. and visually inspected at 24 hours and 48 hours for bacterial growth. Morphology and Gram staining were used for initial identification. A catalase test was used to differentiate staphylococci from streptococci, and a coagulase test was performed on catalase-positive cocci to confirm presence of Staphylococcus aureus. Gram-positive and catalase-negative cocci were differentiated by their reaction to the hydrolysis of esculin under ultraviolet light. […]

[2] = system: Gram-positive major pathogens; assay: Non-inferiority randomized clinical trial: bacteriological cure in cows with subclinical mastitis; format: in vivo
Description: as §1
The milk samples were streaked onto agar plates containing 5% sheep blood and 0.1% esculin. The agar plates were incubated at 37.5° C. and visually inspected at 24 hours and 48 hours for bacterial growth. Morphology and Gram staining were used for initial identification. A catalase test was used to differentiate staphylococci from streptococci, and a coagulase test was performed on catalase-positive cocci to confirm presence of Staphylococcus aureus. Gram-positive and catalase-negative cocci were differentiated by their reaction to the hydrolysis of esculin under ultraviolet light. The Christie, Atkins, Munch-Petersen (CAMP) test and esculin reaction were used to differentiate Streptococcus agalactiae and Streptococcus dysgalactiae, and esculin reaction and culture in enterococcosel agar (from Becton-Dickinson, Durham, N.C., USA) were used to identify Streptococcus uberis. Their morphology and Gram staining were used to identify Corynebacterium species. Growth in McConckey agar and further biochemical tests, such as citrate, indole, oxidase and motility, were used to identify coliforms. Those cultures that presented more than two bacterial species were considered contaminated and not informative of intramammary infection. […]

Streptococcus agalactiae = assay: Non-inferiority trial: bacteriological cure, Strep. agalactiae infections; format: in vivo, cows
Description: as §1, §2

IFN-γ = assay: Cytokine concentrations in milk of treated cows (ELISA); format: in vivo
Description: Once cows were treated, composite milk samples from both treated groups were collected at days 21 and 22 after treatment for SCC and microbiological analyses. Procedures for SCC and microbiology were previously described. Treatment was repeated in cows that remained positive for major Gram-positive bacteria, receiving the same product used for the first treatment 4 days after collecting the second milk sample. A final milk sampling was conducted on all refractory cases 21 and 22 days after the repeated treatment. Individual cow SCC, including laboratory data and pre- and post-treatment concentration of cytokines (IL-1, IL-2, IL-4, IL-6, IL-8, IFN-γ, and TNF-α), were generated for each milk sample. No more than two treatment attempts per cow were performed and used in the study.
Proteins were analyzed in hemoderivatives and whole milk using commercial ELISA development kits from R&D Systems (Minneapolis, Minn., USA) with the exception of […]. PDGF-BB (Human PDGF-BB DuoSet, DY220), TGF-β1 (Human TGF-β1 DuoSet, DY240E), and PF4 (Human CXCL4/PF4 Duoset, DY795), which were determined using human antibodies. […]

CO/N=C(\C(=O)N[C@@H]1C(=O)N2C(C(=O)[O-])=C(C[n+]3cccc4c3CCCC4)CS[C@H]12)c1csc(N)n1.O=S(=O)(O)O [cefquinome sulphate]
Change of mean LnSCC in milk after the start of the trial [1]: no differences | Risk difference for bacteriological cure, non-inferiority interpretation (Streptococcus uberis): better | Risk difference for bacteriological cure, non-inferiority interpretation ([2]; all cases, margin −0.175, 95% CI, FIG. 6): better | Overall bacteriological cure, percent of cows ([2]; cows with subclinical mastitis, EG n=54, RG n=49): 71% | Overall bacteriological cure, number of cows ([2]; cows with subclinical mastitis, intramammary infusion, three consecutive milkings, EG n=54, RG n=49): 35 cows | Risk difference for bacteriological cure, non-inferiority interpretation (Streptococcus agalactiae; Strep. agalactiae cases, margin −0.175, 95% CI, FIG. 6): better, although non-inferiority is inconclusive | Cure risk for Strep. agalactiae (Streptococcus agalactiae; in vivo): 100% | Concentration of IFN-γ in milk, change (IFN-γ; by day 47 in cows treated twice): increased | Concentration of IFN-γ in milk, comparison between groups (IFN-γ; days 0 and 22): higher
